From publication PMC3359361, “Antimalarial Activity and Mechanisms of Action of Two Novel 4-Aminoquinolines against Chloroquine-Resistant Parasites” (PLoS ONE, 2012) come the findings set out here.

Where only a bound is given, the exact number is not on record here.

Data set [1] concerns P. falciparum 3D7 strain (CQ-sensitive). Briefly: 3H hypoxanthine incorporation, 3D7 strain. In kind it is cell-based. The settings on record: Plasmodium falciparum. The text has this:
(§1) Human erythrocytes (A^+) and serum blood group A+ were kindly donated by Center of Hemotherapy and Hemathology of Minas Gerais (HEMOMINAS). Immediately before the tests, ring stage-parasites were synchronized in sorbitol. Synchronized parasites were stained with orange green in pre-dried coverslips then immediately examined under a fluorescent microscope. The suspension was adjusted for parasitemia and hematocrit as described below for each test. The infected red blood cells were distributed in a 96-well microtiter plate (Corning, Santa Clara, CA, EUA) at 180 µL/well, in which 20 µL of the test drugs and controls were previously diluted at different concentrations (400-0.625 ng/mL) in 0.005% DMSO (v/v) (Sigma, USA).
(§2) The [^3H]-hypoxanthine assay was performed at 1% parasitemia and 1% hematocrit and the level of isotope incorporation was read in a beta-counter (PerkinElmer, Waltham, MA, EUA). The anti-HRPII test was performed at 0.05% parasitemia and 1.5% hematocrit and the HRPII quantification was read at 450 nm in a spectrophotometer (SpectraMax340PC^384, Molecular Devices). […] Curve-fitting was performed using Origin 8.0 software (OriginLab Corporation, Northampton, MA, USA).

A further data set deals with P. berghei, NK65 strain. The data set can be described thus: Suppressive parasite growth test in P. berghei infected mice. The settings on record: for Time of survival / Percent reduction of parasitemia, day 5 / Percent reduction of parasitemia, day 8 / Percent reduction of parasitemia, day 10: three consecutive days; for Percent reduction of parasitemia, day 5: day 5 post-infection; for Percent reduction of parasitemia, day 8: day 8 post-infection; for Percent reduction of parasitemia, day 10: day 10 post-infection. In kind it is in vivo. How it is done:
A suppressive parasite growth test was used with P. berghei, NK65 strain (originally received from the New York University Medical School) infected mice as described previously with some modifications. Briefly, adult Swiss outbred mice (20±2 g weigh) were inoculated with 1×10^5 red blood cells infected with P. berghei, by intraperitoneal route. The infected mice were maintained together for at least 2 h and then divided randomly into groups of 3–5 animals per cage, which were subsequently treated with 25 and 50 mg/kg of each compound diluted in DMSO 3% (v/v) given daily by oral gavage for three consecutive days. […] Blood smears from mouse tails were prepared on days 5, 8 and 10 post-infection and then methanol-fixed, stained with Giemsa and examined microscopically.

The test system of data set [2] is P. falciparum W2 clone (CQ-resistant and mefloquine-sensitive). The data set can be described thus: ELISA anti-HRPII assay, W2 clone. In kind it is cell-based. To be noted: Plasmodium falciparum.
Excerpt: as §1, §2

The subject of data set [3] is P. falciparum 3D7 strain (CQ-sensitive). Briefly: ELISA anti-HRPII assay, 3D7 strain. In kind it is cell-based. The settings on record: Plasmodium falciparum.
Excerpt: as §1, §2

Data set [4] relates to P. falciparum W2 clone (CQ-resistant and mefloquine-sensitive). The data set can be described thus: 3H hypoxanthine incorporation, W2 clone. The settings on record: Plasmodium falciparum. In kind it is cell-based.
Excerpt: as §1, §2

The subject of data set [5] is human hepatoma cell line (HepG2). Briefly: Cytotoxicity by MTT assay, HepG2 cells. In kind it is cell-based. The method, then:
(§3) The human hepatoma cell line (HepG2) was originally received from the New University of Lisbon, and the monkey kidney cell line (BGM) from the Federal University of Minas Gerais. […] For the in vitro tests, a confluent cell monolayer was trypsinized, washed with culture medium, distributed in a flat-bottomed 96-well plate (5×10^3 cells/well) and incubated for 18 h at 37°C to ensure cell adherence.
(§4) The cytotoxicity was evaluated with the MTT assay, 3-(4,5-Dimethylthiazol-2-yl)-2,5-diphenyltetrazolium bromide. Briefly, the HepG2 and BGM cell lines were incubated with 20 µL of the compounds at different concentrations (1000-1 µg/mL) for 24 h in a 5% CO2 and air atmosphere at 37°C. For the MTT assay, which evaluates mitochondrial viability, 20 µL of MTT solution (5 mg/mL) were added and the plates were incubated for a further 3 h. After incubation, the supernatant was carefully removed from the wells, followed by the addition of 100 µL DMSO with thorough mixing.
(§5) The neutral red assay was used to evaluate cell viability by the accumulation of dye in the viable cell lysosome. […] Cell viability was expressed as the percentage of control absorbance obtained in untreated cells after subtracting the absorbance of the appropriate background. Lastly, the minimum lethal dose for 50% of the cells (MLD50) was determined as previously described.
A general note: Tetrazolium dyes change colour on reduction, which living cells bring about.

In data set [6] the test system is monkey kidney cell line (BGM). Briefly: Cytotoxicity by MTT assay, BGM cells. In kind it is cell-based. How it is done: as §3, §4, §5
For a further data set, the system named is hemozoin formation. Briefly: Inhibition of hemozoin assay. In kind it is biochemical. The settings on record: dose-dependent; p<0.05 vs drug-free controls; two experiments in triplicate. How it is done:
The hemozoin inhibition assay was performed as described by Ncokazi et al., (2002) with some modifications. Briefly, 10.1 µL of the aminoquinoline derivatives at different concentrations (40-0.62 mg/mL) and 101.2 µL of the hematin stock solution (1.68 mM in 0.1 M NaOH) were combined in triplicate in a flat-bottomed 96-well plate. The solutions were further mixed and 58.7 µL of acetate solution (12.9 M, pH 5.0) then added to each well. After incubation at 60°C, 80 µL of 30% (v/v) pyridine solution in 20 mM HEPES, pH 7.5, were added at room temperature. The solids formed were resuspended and allowed to settle for 15 min at room temperature. Then, 38 µL of the supernatant were transferred to a new plate and diluted to 250 µL with a 30% (v/v) pyridine solution (20 mM HEPES, pH 7.5). The color reaction was read in a spectophometer at 405 nm and the results were expressed as the concentration of free heme in each well, which was calculated from the standard absorbance curve of a known hemin solution. CQ was used as a positive control and the cut off was determined by the amount of free heme in the drug-free control. Each compound was evaluated in two different experiments.

For orientation: IC50 means the point on the concentration scale where inhibition reaches its midpoint. In the case of `CCN(CC)CCCC(C)Nc1ccnc2cc(Cl)ccc12` (stereo not shown) [CQ, Chloroquine], the half-inhibitory concentration (IC50) in data set [1] (3D7, read-out: IC50 Hypoxanthine, 3D7 (CQ sensitive)) was 7.4 ± 1.2 nM. In addition, in the data set on P. berghei, NK65 strain (20 mg/kg daily), the Time of survival is listed as >30 days; the “Percent reduction of parasitemia, day 5” value is on record as 100%; the “Percent reduction of parasitemia, day 8” value was 100%; the “Percent reduction of parasitemia, day 10” value came to 100%. For the same compound, the Suppression of parasitemia in the data set with P. berghei, NK65 strain (CQ 20 mg/kg, day not given) was found to be 100%. Also, the IC50 in data set [2] (W2, read-out: IC50 HRPII, W2 (CQ resistant)) turned out to be 120 nM. Further, in data set [3] (3D7, read-out: IC50 HRPII, 3D7 (CQ sensitive)), the concentration for half-maximal inhibition (IC50) amounted to 6.9 ± 0.9 nM. The IC50 in data set [4] (W2, read-out: IC50 Hypoxanthine, W2 (CQ resistant)) was 180 nM.
Take `NCCNCCNc1ccnc2cc(Cl)ccc12` [MAQ, N^1-(2-aminoethyl)-N^2-(7-chloroquinol-4-yl)ethane-1,2-diamine]: the 50% inhibitory concentration (IC50) in data set [1] (3D7, dose that inhibits 50% of blood parasites growth, three or four experiments, read-out: IC50 Hypoxanthine, 3D7 (CQ sensitive)) came out at 66 ± 5 nM; in data set [2] (W2, dose that inhibits 50% of blood parasites growth, three or four experiments, read-out: IC50 HRPII, W2 (CQ resistant)), 260 ± 20 nM; in data set [3] (3D7, dose that inhibits 50% of blood parasites growth, three or four experiments, read-out: IC50 HRPII, 3D7 (CQ sensitive)), 26 ± 2 nM; in data set [4] (W2, dose that inhibits 50% of blood parasites growth, three or four experiments, read-out: IC50 Hypoxanthine, W2 (CQ resistant)), 320 ± 70 nM. Also, the “Selectivity index HepG2” value in data set [5] (MDL50/IC50) worked out at 1038. Besides, the “MDL50 HepG2” value in data set [5] (human, 24 h) came to 270 ± 10 µM. The “Activity in vivo (class)” value was “active” with P. berghei, NK65 strain (25 mg/kg); “active” in the data set with P. berghei, NK65 strain (50 mg/kg, days 5, 8 and 10 post-infection). Besides, the Time of survival was determined as 24 ± 1 days in the data set on P. berghei, NK65 strain (25 mg/kg daily, oral gavage) and 25 ± 1 days in the data set on P. berghei, NK65 strain (50 mg/kg daily, oral gavage). The “Percent reduction of parasitemia, day 5” value in the data set on P. berghei, NK65 strain (25 mg/kg daily, oral gavage) was 91%; in the data set on P. berghei, NK65 strain (50 mg/kg daily, oral gavage), 95%. In addition, the “Percent reduction of parasitemia, day 8” value in the data set on P. berghei, NK65 strain (25 mg/kg daily, oral gavage) is 61%; in the data set on P. berghei, NK65 strain (50 mg/kg daily, oral gavage), 71%. For the same compound, the “Percent reduction of parasitemia, day 10” value is 70% with P. berghei, NK65 strain (25 mg/kg daily, oral gavage) and 76% in the data set with P. berghei, NK65 strain (50 mg/kg daily, oral gavage). Besides, the “Selectivity index BGM” value in data set [6] (MDL50/IC50) stood at 384. In addition, the “MDL50 BGM” value in data set [6] (monkey, 24 h) was determined as 100 ± 0.0 µM. In the data set on hemozoin formation, the “Inhibition of hemozoin formation in vitro” value is reported as “more evident with MAQ than with BAQ or CQ”.
